Laboratory results published in US8772499B2, “TRPV3 modulators” (AbbVie Inc., priority 2011, dated 2014).
pIC50: −log10 of the molar value. Read-outs that look alike come from different tables or passages of the source.

Tests used:
[1] = In vitro rat microsomal stability assay; type: in vitro ADME, rat (Sprague-Dawley)
Experimental: (§1) Test compounds were evaluated for metabolic stability in an in vitro rat microsomal stability assay using rat liver microsomes (Sprague-Dawley, from BD Biosciences) and/or an in vitro human microsomal stability assay using human liver microsomes (Xenotech). […] Incubations were carried out at 37° C. with a final incubation volume of 135 μL. […] A 1.5 μL aliquot of reduced nicotine adenine disphosphonucleotide (NADPH) (Chem-Impex Int'L Inc., Lot 12532024) was also added to the time-zero plates.

[2] = In vitro human microsomal stability assay; type: in vitro ADME
Experimental: as §1

[3] = biological target: T1, human TRPV3 (Homo sapiens, UniProt Q8NET8); assay: In vitro antagonism of recombinant human TRPV3 activation (FLIPR Tetra calcium assay); type: cell-based; settings: HEK293 cells stably expressing human TRPV3, agonist 2-APB at 80 μM
T1 construct: expressed in transfected cells
T1 sequence (Q8NET8 1-790): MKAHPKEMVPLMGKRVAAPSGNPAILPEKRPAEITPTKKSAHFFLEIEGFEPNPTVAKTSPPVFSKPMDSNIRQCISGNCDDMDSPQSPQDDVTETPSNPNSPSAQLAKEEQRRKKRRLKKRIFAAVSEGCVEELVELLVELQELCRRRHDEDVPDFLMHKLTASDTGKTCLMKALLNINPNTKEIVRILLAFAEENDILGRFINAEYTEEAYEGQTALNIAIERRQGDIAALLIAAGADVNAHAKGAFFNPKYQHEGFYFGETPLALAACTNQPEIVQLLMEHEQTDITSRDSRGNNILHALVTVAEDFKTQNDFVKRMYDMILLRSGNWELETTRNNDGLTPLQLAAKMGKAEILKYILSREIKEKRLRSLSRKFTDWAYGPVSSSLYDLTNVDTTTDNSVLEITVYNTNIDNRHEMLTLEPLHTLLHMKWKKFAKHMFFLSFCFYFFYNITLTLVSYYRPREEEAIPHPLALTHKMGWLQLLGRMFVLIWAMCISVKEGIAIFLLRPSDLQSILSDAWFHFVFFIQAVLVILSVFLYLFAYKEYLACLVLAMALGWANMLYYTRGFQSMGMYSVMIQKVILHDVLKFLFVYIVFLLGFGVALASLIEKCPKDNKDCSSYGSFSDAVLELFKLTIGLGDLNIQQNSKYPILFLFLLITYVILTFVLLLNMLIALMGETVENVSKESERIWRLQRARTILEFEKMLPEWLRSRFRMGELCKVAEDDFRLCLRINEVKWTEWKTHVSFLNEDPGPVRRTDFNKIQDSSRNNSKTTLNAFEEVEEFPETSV
How it was run: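 HEK293 cells stably expressing human TRPV3, loaded with Calcium-4 dye for 90–120 min, received compound in DPBS, then 80 μM 2-APB (EC80) 3 min later. Max-minus-min fluorescence expressed as % of 2-APB response without antagonist; IC50 values mostly averages of n≥2 runs.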

[4] = Sprague-Dawley, rat, microsomes, 0.5 h, 0.5 μM, pH 7.4
[5] = human, microsomes, 0.5 h, 0.5 μM, pH 7.4
[6] = actual measured value shown parenthetically, in most cases average of at least two runs, read-out: IC50
[7] = reported range, read-out: IC50 (range class)
[8] = rat liver microsomes (Sprague-Dawley), 0.5 μM substrate, 0.25 mg/mL microsomal protein, pH 7.4, 37° C., NADPH, 30 minutes
[9] = human liver microsomes, 0.5 μM substrate, 0.25 mg/mL microsomal protein, pH 7.4, 37° C., NADPH, 30 minutes

Structure (SMILES) | RAT MICROSOMAL STABILITY (% REMAINING AFTER 30 MINUTES) [1, 4] | HUMAN MICROSOMAL STABILITY (% REMAINING AFTER 30 MINUTES) [2, 5] | pIC50 [3, 6] | pIC50 [3, 7] | RAT MICROSOMAL STABILITY (% REMAINING AFTER 30 MINUTES) [1, 8] | HUMAN MICROSOMAL STABILITY (% REMAINING AFTER 30 MINUTES) [2, 9]
CC(C)(C)OC(=O)N1CCC(C2(C(O)c3ccccn3)CCC2)C1 (stereo not shown) [Example 265, tert-butyl 3-{1-[hydroxy(pyridin-2-yl)methyl]cyclobutyl}pyrrolidine-1-carboxylate] | 0.059% | 43% | 5.25 | – | – | –
OC(c1ccccn1)C1(C2(O)CCOC2)CCC1 (stereo not shown) [Example 246, 3-{1-[hydroxy(pyridin-2-yl)methyl]cyclobutyl}tetrahydrofuran-3-ol] | 59% | 71% | < 4.70 | < 4.70 | – | –
O=C1CC(c2cncc(C(F)(F)F)c2)([C@H](O)c2ccccn2)C1 [Example 296, 3-[(S)-hydroxy(pyridin-2-yl)methyl]-3-[5-(trifluoromethyl)pyridin-3-yl]-cyclobutanone] | 12% | 67% | < 4.70 | < 4.70 | – | –
CN1CCC(c2cccc(OC(F)(F)F)c2)(C(O)c2ccccn2)CC1 (stereo not shown) [Example 146, {1-methyl-4-[3-(trifluoromethoxy)phenyl]piperidin-4-yl}(pyridin-2-yl)-methanol] | – | – | 4.89 | – | 8.9% | 84%
OC(C1CCCc2cccnc21)C1(c2cccc(C(F)(F)F)c2)CCC1 (single isomer, unassigned) [Example 179, (anti)-5,6,7,8-tetrahydroquinolin-8-yl{1-[3-(trifluoromethyl)phenyl]-cyclobutyl}methanol] | <0.01% | <0.01% | 5.53 | – | – | –
OC(C1CCCc2cccnc21)C1(c2ccc(C(F)(F)F)cc2)CCC1 (single isomer, unassigned) [Example 183, (anti)-5,6,7,8-tetrahydroquinolin-8-yl{1-[4-(trifluoromethyl)phenyl]-cyclobutyl}methanol] | <0.01% | <0.01% | 5.85 | – | – | –
N[C@H]1CCC[C@@H]1[C@H](O)C1(c2ccc(OC(F)(F)F)cc2)CCC1 [Example 222, (S)-[(1S,2S)-2-aminocyclopentyl]{1-[4-(trifluoromethoxy)phenyl]-cyclobutyl}methanol] | 59% | >85% | 5.63 | – | – | –
CN1CCC(c2ccc(OC(F)(F)F)cc2)(C(O)c2ccccn2)CC1 (stereo not shown) [Example 145, {1-methyl-4-[4-(trifluoromethoxy)phenyl]piperidin-4-yl}(pyridin-2-yl)-methanol] | – | – | 5.75 | – | 42% | 68%
OC1CC(c2cccc(OC(F)(F)F)c2)(C(O)c2ccccn2)C1 (single isomer, unassigned) [Example 273] | 65% | 42% | 7.05 | – | – | –
OC(c1ccccn1)C1(c2ccccc2F)CCCO1 (stereo not drawn) [Example 103, (syn)-[2-(2-fluorophenyl)tetrahydrofuran-2-yl](pyridin-2-yl)methanol] | 0.012% | 73% | 5.70 | – | – | –
OC(C1CCCc2cccnc21)C1(c2ccc(C(F)(F)F)cc2)CCC1 (single isomer, unassigned) [Example 184, (syn)-5,6,7,8-tetrahydroquinolin-8-yl{1-[4-(trifluoromethyl)phenyl]-cyclobutyl}methanol] | <0.01% | 0.46% | < 4.70 | < 4.70 | – | –
OC(c1ccccn1)C1(C2=CCCC(C(F)(F)F)C2)CCC1 (stereo not shown) [Example 261, pyridin-2-yl{1-[5-(trifluoromethyl)cyclohex-1-en-1-yl]cyclobutyl}methanol] | <0.01% | 0.01% | 5.90 | – | – | –
OC(C1CCc2cccnc21)C1(c2ccccc2OC(F)(F)F)CCC1 (stereo not drawn) [Example 194, (syn)-6,7-dihydro-5H-cyclopenta[b]pyridin-7-yl{1-[2-(trifluoromethoxy)-phenyl]cyclobutyl}methanol] | <0.01% | 0.08% | < 4.70 | < 4.70 | – | –

Now from value to compound, other results behind:

RAT MICROSOMAL STABILITY (% REMAINING AFTER 30 MINUTES) [1, 4] | HUMAN MICROSOMAL STABILITY (% REMAINING AFTER 30 MINUTES) [2, 5] | pIC50 [3, 6] | pIC50 [3, 7] | Structure (SMILES) | RAT MICROSOMAL STABILITY (% REMAINING AFTER 30 MINUTES) [1, 8] | HUMAN MICROSOMAL STABILITY (% REMAINING AFTER 30 MINUTES) [2, 9]
26% | 28% | < 4.70 | < 4.70 | O[C@@H](c1ccccn1)C1(c2cc(C(F)(F)F)ccn2)CCC1 [Example 122, (R)-pyridin-2-yl{1-[4-(trifluoromethyl)pyridin-2-yl]cyclobutyl}methanol] | – | –
0.18% | 0.08% | 5.62 | – | CC(c1ccccc1Cl)C1(C(O)c2ccccn2)CCC1 (stereo not shown) [Example 50, {1-[1-(2-chlorophenyl)ethyl]cyclobutyl}(pyridin-2-yl)methanol] | – | –
23% | 19% | 5.27 | – | OC(c1ccccn1)C1(c2cccc(C(F)(F)F)n2)CCC1 (stereo not shown) [Example 234, pyridin-2-yl{1-[6-(trifluoromethyl)pyridin-2-yl]cyclobutyl}methanol] | – | –
38% | 50% | 6.15 | – | O[C@H](c1ccccn1)C1(c2ccnc(C(F)(F)F)c2)CCC1 [Example 240, (S)-pyridin-2-yl{1-[2-(trifluoromethyl)pyridin-4-yl]cyclobutyl}methanol] | – | –
45% | 5.3% | 5.60 | – | O[C@H](c1ccccn1)C1(c2ccc(C(F)(F)F)c(F)c2)CCC1 [Example 29, (S)-{1-[3-fluoro-4-(trifluoromethyl)phenyl]cyclobutyl}(pyridin-2-yl)-methanol] | – | –
26% | 41% | 6.12 | – | OC(c1ccccn1)C1(c2ccc(F)c(C(F)(F)F)c2)CC(F)(F)C1 (stereo not shown) [Example 139, {3,3-difluoro-1-[4-fluoro-3-(trifluoromethyl)phenyl]cyclobutyl}(pyridin-2-yl)methanol] | – | –
69% | 78% | < 4.70 | < 4.70 | O=C1CC(c2cc(C(F)(F)F)ccn2)(C(O)c2ccccn2)C1 (stereo not shown) [Example 293, 3-[hydroxy(pyridin-2-yl)methyl]-3-[4-(trifluoromethyl)pyridin-2-yl]-cyclobutanone] | – | –
41% | >85% | 5.65 | – | N[C@@H]1CCC[C@@H]1[C@@H](O)C1(c2ccc(Cl)c(Cl)c2)CCC1 [Example 216, (R)-[(1S,2R)-2-aminocyclopentyl][1-(3,4-dichlorophenyl)cyclobutyl]-methanol] | – | –
0.020% | 7.6% | 6.96 | – | OC(c1ccccn1)C1(c2ccc(Cl)c(Cl)c2)CCCO1 (single isomer, unassigned) [Example 98] | – | –
0.31% | 1.8% | 6.18 | 6.30 to 7.30 | OC(c1ccccn1)C1(c2ccc(Cl)c(Cl)c2)CCCCC1 (stereo not shown) [Example 43, [1-(3,4-dichlorophenyl)cyclohexyl](pyridin-2-yl)methanol] | – | –
>85% | >85% | 4.71 | – | OC(c1ccccn1)C1(c2ccc(C(F)(F)F)cc2)CNC1 (stereo not shown) [Example 152, pyridin-2-yl{3-[4-(trifluoromethyl)phenyl]azetidin-3-yl}methanol] | – | –
